# The source made the active and inactive calls.
# What was measured:
# [1] = target: T1, Ubiquitin-conjugating enzyme E2 N (Homo sapiens, UniProt P61088); format: functional;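 note: Dose-response confirmation in a TR-FRET assay detecting UBC13-driven polyubiquitin chain formation, inhibition measured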
# T1 sequence (P61088 whole entry): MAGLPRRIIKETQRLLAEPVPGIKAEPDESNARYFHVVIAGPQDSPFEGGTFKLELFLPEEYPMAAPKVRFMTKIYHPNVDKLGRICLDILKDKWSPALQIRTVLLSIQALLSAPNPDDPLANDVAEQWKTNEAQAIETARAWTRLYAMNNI
# [2] = target: T2, Corticotropin-releasing factor receptor 2/Corticotropin-releasing factor-binding protein (Homo sapiens, UniProt P24387+Q13324); assay: Dose Response confirmation of uHTS hits for small molecule antagonists of the CRF-binding protein and CRF-R2 receptor complex.; format: functional; conditions: read-out: IC50_Mean
# T2 sequence (Q13324 whole entry): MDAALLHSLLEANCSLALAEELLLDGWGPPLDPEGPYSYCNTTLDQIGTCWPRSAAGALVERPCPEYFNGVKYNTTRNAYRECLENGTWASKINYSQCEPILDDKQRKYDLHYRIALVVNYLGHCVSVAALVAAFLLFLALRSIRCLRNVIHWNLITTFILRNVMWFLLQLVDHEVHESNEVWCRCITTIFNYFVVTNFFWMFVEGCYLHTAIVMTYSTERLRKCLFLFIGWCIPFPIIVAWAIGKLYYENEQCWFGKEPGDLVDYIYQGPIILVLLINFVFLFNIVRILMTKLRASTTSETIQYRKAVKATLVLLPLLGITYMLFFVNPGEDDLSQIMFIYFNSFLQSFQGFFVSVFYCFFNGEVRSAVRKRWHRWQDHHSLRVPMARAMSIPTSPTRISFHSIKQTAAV
# T2 sequence (P24387 whole entry): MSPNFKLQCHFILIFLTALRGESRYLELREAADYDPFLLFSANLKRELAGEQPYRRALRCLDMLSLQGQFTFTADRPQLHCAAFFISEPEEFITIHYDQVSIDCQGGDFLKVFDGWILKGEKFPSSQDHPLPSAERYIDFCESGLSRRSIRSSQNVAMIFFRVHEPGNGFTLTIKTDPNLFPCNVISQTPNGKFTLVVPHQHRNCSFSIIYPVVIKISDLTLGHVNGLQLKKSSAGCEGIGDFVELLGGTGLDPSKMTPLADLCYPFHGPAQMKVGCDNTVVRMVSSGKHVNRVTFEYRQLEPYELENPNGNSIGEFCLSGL
# [3] = target: T2, Corticotropin-releasing factor receptor 2/Corticotropin-releasing factor-binding protein; assay: activators of CRF receptor 2 with binding protein – uHTS hits, confirmation (AID 602473); format: functional; conditions: read-out: EC50_Mean
# [4] = HEp-2 cell cytotoxicity, dose response, cytotoxicity control for RSV inhibitor project, HTS (AID 2410); format: functional; conditions: human respiratory syncytial virus
# [5] = inhibitors of intracellular T. cruzi replication, confirmation, NIH3T3 host cells, beta-gal luminescence (AID 2044); format: functional, cell-based;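 note: intracellular parasites grown in NIH/3T3 mouse fibroblasts as host cells; luminescent beta-galactosidase reporter signal from transgenic T. cruzi replicating inside host cells; inhibitors lower the luminescence signal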
# [6] = target: T3, Calpain-2 catalytic subunit (Sus scrofa, UniProt P43367); assay: pig calpain II inhibitor potency, dose response, biochemical, fluorogenic peptide substrate (AID 1420); format: functional
# T3 sequence (P43367 whole entry): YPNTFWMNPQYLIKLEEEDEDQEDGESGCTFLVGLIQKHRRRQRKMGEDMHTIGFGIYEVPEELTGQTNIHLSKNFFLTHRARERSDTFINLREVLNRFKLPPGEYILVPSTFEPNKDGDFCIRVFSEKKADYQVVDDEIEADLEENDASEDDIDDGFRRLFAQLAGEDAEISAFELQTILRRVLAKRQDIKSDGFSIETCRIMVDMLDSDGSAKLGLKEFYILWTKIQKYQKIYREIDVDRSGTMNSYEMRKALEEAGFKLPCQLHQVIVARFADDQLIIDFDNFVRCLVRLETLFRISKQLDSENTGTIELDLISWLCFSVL
# [7] = cytotoxicity toward NIH3T3 fibroblasts, dose response, counter-screen, cell-based, ATP luminescence, mouse fibroblasts (AID 2010); format: functional;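 note: cells exposed to compound for about 90 hours before reading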
# [8] = Luminescence Cell-Based Dose Retest to Confirm Inhibitors of Cancer Stem Cells. [Related pubchem assays (depositor defined):AID2717, AID2721]; format: functional; conditions: Homo sapiens
# [9] = target: T4, Endoribonuclease toxin MazF (Escherichia coli K-12, UniProt P0AE70); assay: MazF toxin RNase activators, dose response, biochemical, fluorescence, single-stranded RNA substrate, uHTS hits (AID 588481); format: functional
# T4 sequence (P0AE70 whole entry): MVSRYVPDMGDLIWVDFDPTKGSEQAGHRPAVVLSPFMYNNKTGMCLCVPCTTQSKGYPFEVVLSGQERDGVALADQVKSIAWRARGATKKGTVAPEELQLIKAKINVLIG
# [10] = target: T4, Endoribonuclease toxin MazF; assay: fluorescent RNA oligo signal without MazF, dose response, counter-screen for MazEF activator project, biochemical, fluorescence, single-stranded RNase substrate (AID 588502); format: functional
# [11] = target: T5, Replicative DNA helicase DnaB (Mycobacterium tuberculosis, UniProt P9WMR3); assay: DnaB intein splicing inhibitors, dose response, biochemical, cell-free fluorescence (AID 449749); format: functional
# T5 sequence (P9WMR3 whole entry): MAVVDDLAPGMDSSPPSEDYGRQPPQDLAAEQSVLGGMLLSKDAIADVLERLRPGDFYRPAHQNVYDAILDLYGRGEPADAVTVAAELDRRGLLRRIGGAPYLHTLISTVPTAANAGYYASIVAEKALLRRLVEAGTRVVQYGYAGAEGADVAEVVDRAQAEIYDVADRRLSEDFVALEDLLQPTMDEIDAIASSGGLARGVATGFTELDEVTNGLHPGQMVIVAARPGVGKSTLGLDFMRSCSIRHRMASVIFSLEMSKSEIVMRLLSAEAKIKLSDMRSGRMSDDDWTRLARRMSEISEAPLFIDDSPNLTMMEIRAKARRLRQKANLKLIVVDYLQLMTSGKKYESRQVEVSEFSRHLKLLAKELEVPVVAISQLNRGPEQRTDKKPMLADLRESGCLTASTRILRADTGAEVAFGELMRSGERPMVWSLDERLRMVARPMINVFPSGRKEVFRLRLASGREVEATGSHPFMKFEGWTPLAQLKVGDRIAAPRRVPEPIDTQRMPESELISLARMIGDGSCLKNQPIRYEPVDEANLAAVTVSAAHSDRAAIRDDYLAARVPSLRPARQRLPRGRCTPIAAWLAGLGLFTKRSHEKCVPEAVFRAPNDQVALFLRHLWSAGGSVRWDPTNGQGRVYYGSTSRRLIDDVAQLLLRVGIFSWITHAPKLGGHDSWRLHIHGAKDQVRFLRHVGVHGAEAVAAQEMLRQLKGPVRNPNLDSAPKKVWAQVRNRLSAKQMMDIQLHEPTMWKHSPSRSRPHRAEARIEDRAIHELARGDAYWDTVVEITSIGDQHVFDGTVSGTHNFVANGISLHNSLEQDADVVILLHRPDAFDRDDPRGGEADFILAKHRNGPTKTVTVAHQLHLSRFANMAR
# [12] = target: T6, Protein RecA (Mycobacterium tuberculosis, UniProt P9WHJ3); assay: Fluorescence Cell-Free Homogeneous Dose Retest to Identify Inhibitors of RecA-Intein Splicing Activity. [Related pubchem assays (depositor defined):AID2097, AID2223, AID489010, AID492950]; format: functional
# T6 sequence (P9WHJ3 whole entry): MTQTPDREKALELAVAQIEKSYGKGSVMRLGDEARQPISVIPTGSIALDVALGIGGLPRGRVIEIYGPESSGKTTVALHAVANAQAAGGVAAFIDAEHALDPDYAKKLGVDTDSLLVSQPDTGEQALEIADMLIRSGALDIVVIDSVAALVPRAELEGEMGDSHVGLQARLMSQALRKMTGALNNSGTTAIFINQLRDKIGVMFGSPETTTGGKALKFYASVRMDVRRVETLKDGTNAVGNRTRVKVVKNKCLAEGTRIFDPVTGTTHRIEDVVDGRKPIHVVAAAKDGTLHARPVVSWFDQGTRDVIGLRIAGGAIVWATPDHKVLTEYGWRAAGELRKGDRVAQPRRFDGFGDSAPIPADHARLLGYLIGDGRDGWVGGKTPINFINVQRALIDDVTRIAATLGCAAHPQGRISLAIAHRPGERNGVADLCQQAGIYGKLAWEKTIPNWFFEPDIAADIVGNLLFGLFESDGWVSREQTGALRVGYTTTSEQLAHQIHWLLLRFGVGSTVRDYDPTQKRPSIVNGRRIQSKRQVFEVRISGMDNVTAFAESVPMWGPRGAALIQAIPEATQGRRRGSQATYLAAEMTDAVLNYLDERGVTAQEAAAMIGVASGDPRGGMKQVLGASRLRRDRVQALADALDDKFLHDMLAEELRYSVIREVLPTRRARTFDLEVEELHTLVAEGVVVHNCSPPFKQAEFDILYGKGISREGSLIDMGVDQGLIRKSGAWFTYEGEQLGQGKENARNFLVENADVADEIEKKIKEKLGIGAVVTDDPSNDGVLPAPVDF
# [13] = microbe, parasite or virus in culture; format: functional; conditions: Mycobacterium tuberculosis
# [14] = cells; format: functional, cell-based
# [15] = cells; format: functional, cell-based; remark: listed apart in the source
# [16] = cells; format: functional
# [17] = Shn3 3'UTR reporter inhibitors, dose response, cell-based, Clone20 osteoblasts, firefly luciferase, cherry-picked (AID 624132); format: functional;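 note: firefly luciferase luminescence from reporter carrying the Shn3 3'UTR in osteoblasts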
# [18] = control 3'UTR Renilla luciferase suppression, dose response, counter-screen for Shn3 inhibitor project, cell-based, Clone20-Shn3RL, cherry-picked (AID 624133); format: functional
smiles,measurement,setting,value
CC(C)COCC(CN(Cc1ccccc1)c1ccccc1)N1CCCC1 (configuration not stated),IC50,[1],> 20 µM (inactive)
CCN(CC)CCN/C(C)=C1\C(=O)NC(=O)N(c2ccccc2OC)C1=O,IC50,[2],> 47.1 µM (inactive)
same,EC50,[3],> 53 µM (inactive)
CCCCN(CC)S(=O)(=O)c1ccc(C(=O)N(CCCN(C)C)c2nc3cc(C)cc(C)c3s2)cc1,CC50,[4],14.9 µM (active)
same,EC50,[5],0.227 µM (active)
same,IC50,[6],8.03 µM (not active)
same,EC50,[7],9.54 µM (active)
same,AC50,[8],6.96 µM (active)
same,IC50,[1],> 20 µM (inactive)
CCN(CC)CCn1c(=O)n(-c2ccc(Cl)cc2)c(=O)c2c3c(sc21)CN(C)CC3,EC50,[9],> 99 µM (inactive)
same,EC50,[10],> 99 µM (inactive)
CCOc1ccc(S(=O)(=O)NCc2cccnc2)cc1C,AC50,[11],> 380 µM (inactive)
same,EC50,[12],> 380 µM (inactive)
Cc1ccc2[nH]c(=O)c(=NNc3ccccc3)cnc2c1,CC50,[13],> 40 µM (active)
CCC(=O)n1nc(NCc2ccc(OC)c(OC)c2)nc1NCc1ccc(OC)c(OC)c1,EC50,[14],> 350 µM (not active)
same,EC50,[15],> 350 µM (not active)
Cn1c(SCC(=O)c2ccccc2)nnc1-c1ccco1,EC50,[14],> 350 µM (not active)
same,EC50,[15],57.5 µM (active)
CC(C)Cn1nc2c3c(ccc2c1O)C(=O)c1ccccc1C3=O,CC50,[13],16.4 µM (active)
Cn1cccc1/C=C1\SC(=O)N(c2ccccc2)C1=O,EC50,[9],> 99 µM (inactive)
same,EC50,[10],32 µM (inactive)
Cc1ccc(S[C@@H](CCN2CC[C@H](C)CCC2=O)c2ccccc2)cc1,AC50,[11],5.34 µM (active)
same,EC50,[12],17.6 µM (active)
CC1(C)CC2=Nc3nn(-c4ccccc4)c(O)c3C(c3ccc4c(c3)OCO4)C2=C(O)C1 (configuration not stated),AC50,[11],66.1 µM (active)
same,EC50,[12],24 µM (active)
N#Cc1ccc(COC(=O)CCc2c[nH]c3ccccc23)cc1,IC50,[16],1.68 µM (active)
CSc1ccc(C(=O)C2CCCN(Cc3cc4ccccc4[nH]3)C2)cc1 (configuration not stated),IC50,[16],13.2 µM (active)
COc1ccc(-c2noc(CCC(=O)NCC3CCN(Cc4cccc(C)c4)CC3)n2)cc1,IC50,[1],> 20 µM (inactive)
Cc1ccc(OCCCCNC2CCCC(C)C2C)c(C)c1 (configuration not stated),EC50,[5],0.778 µM (active)
same,CC50,[13],> 40 µM (active)
same,EC50,[7],> 60 µM (not active)
OC(CN1C2=NCCN2c2ccccc21)c1ccc2c(c1)OCO2 (configuration not stated),IC50,[2],> 47.1 µM (inactive)
same,EC50,[3],> 53 µM (inactive)
CCCn1c(=N)c(C(=O)NCc2ccc3c(c2)OCO3)cc2c(=O)n3cccc(C)c3nc21,EC50,[5],1.67 µM (active)
same,CC50,[13],33.9 µM (active)
same,EC50,[7],> 30 µM (not active)
FC(F)(F)c1ccc2c(c1)NP(=S)(N1CCOCC1)c1nccn1-2 (configuration not stated),EC50,[14],> 350 µM (not active)
same,EC50,[15],> 350 µM (not active)
CCCOC(=O)NC1C(NC(=O)OCCC)N(C)C(=O)N1C (configuration not stated),EC50,[14],> 350 µM (not active)
same,EC50,[15],> 350 µM (not active)
COC(=O)CN1C(=O)COc2ccc(S(=O)(=O)NCc3ccc(Cl)cc3)cc21,IC50,[2],> 47.1 µM (inactive)
same,EC50,[3],> 53 µM (inactive)
CC(=O)c1cccc(NC(=O)CN(C)S(=O)(=O)c2cccc3nsnc23)c1,EC50,[14],> 350 µM (not active)
same,EC50,[15],> 350 µM (not active)
CN(C(=O)COC(=O)c1ccc(F)c(S(=O)(=O)N2CCOCC2)c1)C1CCS(=O)(=O)C1 (configuration not stated),EC50,[14],> 350 µM (not active)
same,EC50,[15],> 350 µM (not active)
CCCC(=O)NC(=S)Nc1ccc(N2CCN(C(=O)c3cccs3)CC2)cc1,AC50,[17],10.1 µM (active)
same,AC50,[18],10.7 µM (active)
CC(=O)N1CCN(S(=O)(=O)c2cccc(C(=O)NCc3ccc(F)cc3)c2)CC1,IC50,[2],> 47.1 µM (inactive)
same,EC50,[3],> 53 µM (inactive)
COc1ccc(CCNC(=O)c2cccn2C)cc1,IC50,[2],> 47.1 µM (inactive)
same,EC50,[3],> 53 µM (inactive)
COc1ccccc1NC(=O)C1=C(C)Nc2nnnn2C1c1ccncc1 (configuration not stated),AC50,[11],21.2 µM (inconclusive)
Cc1ccc(NC(=O)CCn2cc(C(F)(F)F)ccc2=O)cc1,IC50,[2],> 47.1 µM (inactive)
same,EC50,[3],> 53 µM (inactive)
COc1ccc(/C=N/NS(=O)(=O)c2ccccc2)cc1OC(=O)c1ccc(C)cc1,IC50,[2],> 47.1 µM (inactive)
same,EC50,[3],> 53 µM (inactive)

# — ChEMBL document CHEMBL1201862, “PubChem BioAssay data set” (2004)
